Assay results from patent publication EP2931723B1, “NEW BICYCLIC COMPOUNDS AND THEIR USE AS ANTIBACTERIAL AGENTS AND -LACTAMASE INHIBITORS” (Fedora Pharmaceuticals Inc., priority 2012, dated 2014).

How the values were obtained:
Assay in all cases: MIC, antibacterial and synergistic activity
Type in all cases: cell-based
[1] = system: K. pneumo JMI 2681; details: K. pneumo JMI 2681 (Oxa-48 (Cpase))
[2] = system: E. coli JMI 10767; details: E. coli JMI 10767 (Wt)
[3] = system: A. baumanii JMI 2659; details: A. baumanii JMI 2659 (Ges-14 (Cpase))
[4] = system: E.coli JMI 4103; details: E.coli JMI 4103 (KPC-2, Tem-1, CMY-Type)
[5] = system: E. coli JMI 10768; details: E. coli JMI 10768 (CTX-M15 (Weak ESBL)); Meropenem + inhibitor at 4 µg/mL
[6] = system: K.pneumo JMI 4109; details: K.pneumo JMI 4109 (SHV-1, SHV-12); substance alone
[7] = system: K. pneumo JMI 4088; details: K. pneumo JMI 4088 (KPC-3 (Cpase)); substance alone
[8] = system: K. pneumo JMI 2693; details: K. pneumo JMI 2693 (NDM-1 (Cpase))
Method: (§1) In the Tables 10 - 12, compounds herein disclosed were tested in combination with various antibiotics against metallo β-lactamase producing bacteria.

[9] = system: K. pneumo JMI 2697; details: K. pneumo JMI 2697 (IMP-4 (Cpase))
Method: as §1

[10] = system: E. coli JMI 2692; details: E. coli JMI 2692 (NDM-1, TEM-1, CTX-M-15)
Method: as §1

[11] = system: E. coli JMI 4080
[12] = system: E. coli JMI 11103
[13] = system: K. pneumo JMI 2674; details: K. pneumo JMI 2674 (CTX-M15 (ESBL)); substance alone
[14] = system: K. pneumo JMI 4106; details: K. pneumo JMI 4106 (KPC-3, TEM-1, SHV-12, SHV-141)
[15] = system: E. coli JMI 10770; details: Escherichia coli, JMI10770; E. coli JMI 10770 (CTX-M15 (Hyper ESBL)); substance alone
[16] = system: K. pneumo JMI 2673; details: K. pneumo JMI 2673 (CTX-M14 (ESBL)); substance alone
[17] = system: E. cloacae JMI 36; details: E. cloacae JMI 36 (P99)
[18] = system: P. aerug JMI 2686; details: P. aerug JMI 2686 (KPC-2 (Cpase)); substance alone
[19] = system: P. aerug JMI 149; details: P. aerug JMI 149 (Bla+++D+)
[20] = system: E. coli ATCC 25922; details: E. coli ATCC 25922 (Wt)
[21] = system: E. coli JMI 2665
Method: (§2) In the Tables 10 - 12, compounds herein disclosed were tested in combination with various antibiotics against metallo β-lactamase producing bacteria. Table 3: Synergy of the inhibitor Ex. 1 (4 µg/mL) in combination with antibiotics

[22] = system: E. coli JMI 2671
Method: as §2

[23] = Aztreonam + inhibitor at 4 µg/mL
[24] = Ceftazidime + inhibitor at 4 µg/mL
[25] = Meropenem + inhibitor at 4 µg/mL

SMILES: O=C(NNC(=O)[C@H]1CC[C@H]2CN1C(=O)N2OS(=O)(=O)O)C1CNC1 (stereo in doubt) [Ex. 9, (2R,5S)-N'-(azetidin-3-ylcarbonyl)-7-oxo-6-(sulfooxy)-1,6-diazabicyclo[3.2.1]octane-2-carbohydrazide]
- MIC Aztreonam + inhibitor [1, 23]: 0.25 µg/mL
- MIC Ceftazidime + inhibitor [1, 24]: ≤0.25 µg/mL
- MIC Meropenem + inhibitor [1, 25]: >2 µg/mL
- MIC ([1]; substance alone, read-out: MIC): > 16 µg/mL
- MIC Meropenem + inhibitor [2, 25]: ≤0.03 µg/mL
- MIC ([2]; Escherichia coli, JMI10767, substance alone): > 16 µg/mL
- MIC Aztreonam + inhibitor [3, 23]: >4 µg/mL
- MIC Ceftazidime + inhibitor [3, 24]: 16 µg/mL
- MIC Meropenem + inhibitor [3, 25]: 2 µg/mL
- MIC ([3]; Acinetobacter baumannii, JMI2659, substance alone, read-out: MIC): > 16 µg/mL
- MIC Aztreonam + inhibitor [4, 23]: ≤0.06 µg/mL
- MIC Ceftazidime + inhibitor [4, 24]: 0.5 µg/mL
- MIC Meropenem + inhibitor [4, 25]: 0.06 µg/mL
- MIC ([4]; Escherichia coli, JMI4103, substance alone): 16 µg/mL
- MIC Meropenem + inhibitor [5]: ≤0.03 µg/mL
- MIC [6]: 4 µg/mL
- MIC [7]: 16 µg/mL
- MIC Aztreonam + inhibitor [8, 23]: 0.25 µg/mL
- MIC Ceftazidime + inhibitor [8, 24]: ≤0.25 µg/mL
- MIC Meropenem + inhibitor [8, 25]: 0.125 µg/mL
- MIC ([8]; substance alone): > 16 µg/mL
- MIC Aztreonam + inhibitor [9, 23]: ≤0.06 µg/mL
- MIC Ceftazidime + inhibitor [9, 24]: 8 µg/mL
- MIC Meropenem + inhibitor [9, 25]: 2 µg/mL
- MIC ([9]; substance alone): 16 µg/mL
- MIC Aztreonam + inhibitor [10, 23]: 1 µg/mL
- MIC Ceftazidime + inhibitor [10, 24]: >16 µg/mL
- MIC Meropenem + inhibitor [10, 25]: 0.125 µg/mL
- MIC ([10]; Escherichia coli, JMI2692, substance alone, read-out: MIC): 8 µg/mL
- MIC Aztreonam + inhibitor ([11]; E. coli JMI 4080 (Tem-10), Aztreonam + inhibitor at 4 µg/mL): ≤0.06 µg/mL
- MIC Ceftazidime + inhibitor ([11]; E. coli JMI 4080 (Tem-10), Ceftazidime + inhibitor at 4 µg/mL): 0.25 µg/mL
- MIC Meropenem + inhibitor ([11]; E. coli JMI 4080 (Tem-10), Meropenem + inhibitor at 4 µg/mL): ≤0.03 µg/mL
- MIC ([11]; Escherichia coli, JMI4080, E. coli JMI 4080 (Tem-10), substance alone): 16 µg/mL
- MIC Aztreonam + inhibitor ([12]; E. coli JMI 11103 (CTX-M15 (Intermediate ESBL)), Aztreonam + inhibitor at 4 µg/mL): ≤0.06 µg/mL
- MIC Ceftazidime + inhibitor ([12]; E. coli JMI 11103 (CTX-M15 (Intermediate ESBL)), Ceftazidime + inhibitor at 4 µg/mL): ≤0.25 µg/mL
- MIC Meropenem + inhibitor ([12]; E. coli JMI 11103 (CTX-M15 (Intermediate ESBL)), Meropenem + inhibitor at 4 µg/mL): ≤0.03 µg/mL
- MIC ([12]; Escherichia coli, JMI11103, E. coli JMI 11103 (CTX-M15 (Intermediate ESBL)), substance alone): > 16 µg/mL
- MIC [13]: > 16 µg/mL
- MIC Aztreonam + inhibitor [14, 23]: 0.5 µg/mL
- MIC Ceftazidime + inhibitor [14, 24]: ≤0.25 µg/mL
- MIC Meropenem + inhibitor [14, 25]: 0.125 µg/mL
- MIC ([14]; substance alone, read-out: MIC): 8 µg/mL
- MIC [15]: > 16 µg/mL
- MIC [16]: > 16 µg/mL
- MIC Aztreonam + inhibitor [17, 23]: 0.25 µg/mL
- MIC Ceftazidime + inhibitor [17, 24]: ≤0.25 µg/mL
- MIC Meropenem + inhibitor [17, 25]: 0.06 µg/mL
- MIC ([17]; Enterobacter cloacae, JMI36, substance alone, read-out: MIC): > 16 µg/mL
- MIC [18]: 16 µg/mL
- MIC Aztreonam + inhibitor [19, 23]: >4 µg/mL
- MIC Ceftazidime + inhibitor [19, 24]: 16 µg/mL
- MIC Meropenem + inhibitor [19, 25]: 0.5 µg/mL
- MIC ([19]; substance alone, read-out: MIC): 16 µg/mL
- MIC Aztreonam + inhibitor [20, 23]: ≤0.06 µg/mL
- MIC Ceftazidime + inhibitor [20, 24]: ≤0.25 µg/mL
- MIC Meropenem + inhibitor [20, 25]: ≤0.03 µg/mL
- MIC ([20]; Escherichia coli, ATCC25922, substance alone): > 16 µg/mL
- MIC Aztreonam + inhibitor ([21]; E. coli JMI 2665 (CMY-2 (Plasmid Cpase)), Aztreonam + inhibitor at 4 µg/mL): ≤0.06 µg/mL
- MIC Ceftazidime + inhibitor ([21]; E. coli JMI 2665 (CMY-2 (Plasmid Cpase)), Ceftazidime + inhibitor at 4 µg/mL): ≤0.25 µg/mL
- MIC Meropenem + inhibitor ([21]; E. coli JMI 2665 (CMY-2 (Plasmid Cpase)), Meropenem + inhibitor at 4 µg/mL): ≤0.03 µg/mL
- MIC ([21]; Escherichia coli, JMI2665): 8 µg/mL
- MIC Aztreonam + inhibitor ([22]; E. coli JMI 2671 (VIM-19 (Cpase)), Aztreonam + inhibitor at 4 µg/mL): ≤0.06 µg/mL
- MIC Ceftazidime + inhibitor ([22]; E. coli JMI 2671 (VIM-19 (Cpase)), Ceftazidime + inhibitor at 4 µg/mL): 1 µg/mL
- MIC Meropenem + inhibitor ([22]; E. coli JMI 2671 (VIM-19 (Cpase)), Meropenem + inhibitor at 4 µg/mL): 0.125 µg/mL
- MIC ([22]; Escherichia coli, JMI2671, E. coli JMI 2671 (VIM-19 (Cpase)), substance alone): > 16 µg/mL
